Each molecule was assayed on FLK-1 receptor (assay: FLK-1 Assay (cellular/catalytic ELISA, VEGF-stimulated phosphotyrosine)).
Format: cell-based
Parameters: concentration or dose not given beside the values
Description: The cellular/catalytic assays described herein are performed in an ELISA format. The general procedure is as follows: a compound is introduced to cells expressing the test kinase, either naturally or recombinantly, for a selected period of time after which, if the test kinase is a receptor, a ligand known to activate the receptor is added. The cells are lysed and the lysate is transferred to the wells of an ELISA plate previously coated with a specific antibody recognizing the substrate of the enzymatic phosphorylation reaction. Non-substrate components of the cell lysate are washed away and the amount of phosphorylation on the substrate is detected with an antibody specifically recognizing phosphotyrosine compared with control cells that were not contacted with a test compound.
An ELISA assay is conducted to measure the kinase activity of the FLK-1 receptor and more specifically, the inhibition or activation of TK activity on the FLK-1 receptor. Specifically, the following assay can be conducted to measure kinase activity of the FLK-1 receptor in cells genetically engineered to express Flk-1.
a. Corning 96-well ELISA plates (Corning Catalog No. 25805-96);
b. Cappel goat anti-rabbit IgG (catalog no. 55641);
c. PBS (Gibco Catalog No. 450-1300EB);
d. TBSW Buffer (50 mM Tris (pH 7.2), 150 mM NaCl and 0.1% Tween-20);
e. Ethanolamine stock (10% ethanolamine (pH 7.0), stored at 4° C.);
f. HNTG buffer (20 mM HEPES buffer (pH 7.5), 150 mM NaCl, 0.2% Triton X-100, and 10% glycerol);
g. EDTA (0.5 M (pH 7.0) as a 100× stock);
h. Sodium orthovanadate (0.5 M as a 100× stock);
i. Sodium pyrophosphate (0.2 M as a 100× stock);
j. NUNC 96 well V bottom polypropylene plates (Applied Scientific Catalog No. AS-72092);
k. NIH3T3 C7#3 Cells (FLK-1 expressing cells);
l. DMEM with 1× high glucose L-Glutamine (catalog No. 11965-050);
n. L-glutamine, Gibco (catalog no. 25030-016);
o. VEGF, PeproTech, Inc. (catalog no. 100-20)(kept as 1 μg/100 μl stock in Milli-Q dH2O and stored at −20° C.;
p. Affinity purified anti-FLK-1 antiserum;
q. UB40 monoclonal antibody specific for phosphotyrosine (see, Fendley, et al., 1990, Cancer Research 50:1550-1558);
r. EIA grade Goat anti-mouse IgG-POD (BioRad catalog no. 172-1011);
s. 2,2-azino-bis(3-ethylbenz-thiazoline-6-sulfonic acid (ABTS) solution (100 mM citric acid (anhydrous), 250 mM Na2HPO4 (pH 4.0), 0.5 mg/ml ABTS (Sigma catalog no. A-1888)), solution should be stored in dark at 4° C. until ready for use;
t. H2O2 (30% solution) (Fisher catalog no. H325);
u. ABTS/ H2O2 (15 ml ABTS solution, 2 μl H2O2) prepared 5 minutes before use and left at room temperature;
v. 0.2 M HCl stock in H2O;
w. dimethylsulfoxide (100%) (Sigma Catalog No. D-8418); and
y. Trypsin-EDTA (Gibco BRL Catalog No. 25200-049).
1. Coat Corning 96-well ELISA plates with 1.0 μg per well Cappel Anti-rabbit IgG antibody in 0.1M Na2CO3 pH 9.6. Bring final volume to 150 μl per well. Coat plates overnight at 4° C. Plates can be kept up to two weeks when stored at 4° C.
2. Grow cells in Growth media (DMEM, supplemented with 2.0 mM L-Glutamine, 10% FBS) in suitable culture dishes until confluent at 37° C., 5% CO2.
3. Harvest cells by trypsinization and seed in Corning 25850 polystyrene 96-well round bottom cell plates, 25,000 cells/well in 200 μl of growth media.
4. Grow cells at least one day at 37° C., 5% CO2.
5. Wash cells with D-PBS 1×.
6. Add 200 μl/well of starvation media (DMEM, 2.0 mM 1-Glutamine, 0.1% FBS). Incubate overnight at 37° C., 5% CO2.
7. Dilute Compounds 1:20 in polypropylene 96 well plates using starvation media. Dilute dimethylsulfoxide 1:20 for use in control wells.
8. Remove starvation media from 96 well cell culture plates and add 162 μl of fresh starvation media to each well.
9. Add 18 μl of 1:20 diluted compound dilution (from step 7) to each well plus the 1:20 dimethylsulfoxide dilution to the control wells (+/− VEGF), for a final dilution of 1:200 after cell stimulation. Final dimethylsulfoxide is 0.5%. Incubate the plate at 37° C., 5% CO2 for two hours.
10. […]
In the case of Cc1c(Br)cc(Br)c2c1C(=Cc1coc3ccc([N+](=O)[O-])cc3c1=O)C(=O)N2 [10731/H07], the “Flk Kinase % Inhibition (P.110)” value is reported as 74.5%. Cc1c(Br)cc(Br)c2c1C(=Cc1c[nH]c(=O)[nH]c1=O)C(=O)N2 [10731/H08] was tested, and the “Flk Kinase % Inhibition (P.110)” value was 31.4%. With COc1ccc2[nH]cc(C=C3C(=O)Nc4c(Br)cc(Br)c(C)c43)c2c1 [10731/H09] the “Flk Kinase % Inhibition (P.110)” value was 15.8%. With Cc1c(Br)cc(Br)c2c1C(=C1C(=O)N(C)c3ccccc31)C(=O)N2 [10731/H10] the “Flk Kinase % Inhibition (P.110)” value was 25.9%. Cc1c(Br)cc(Br)c2c1C(=CC(c1cccs1)C(F)(F)F)C(=O)N2 (stereo not drawn) [10732/H02] was tested, and the “Flk Kinase % Inhibition (P.110)” value was 9.1%. COc1c(C(C)C)cc(C=C2C(=O)Nc3c(Br)cc(Br)c(C)c32)cc1C(C)C [10732/H03] was tested, and the “Flk Kinase % Inhibition (P.110)” value was 8.4%. For Cc1c(Br)cc(Br)c2c1C(=Cc1cc(C(C)C)c(Oc3ccccc3)c(C(C)C)c1)C(=O)N2 [10732/H04], the “Flk Kinase % Inhibition (P.110)” value was 4.9%. COc1ccc(C=C2C(=O)Nc3c(Br)cc(Br)c(C)c32)cc1C(C)(C)C [10732/H05] was tested, and the “Flk Kinase % Inhibition (P.110)” value was 12.8%. With Cc1c(Br)cc(Br)c2c1C(=Cc1ccc(OCc3ccccc3)c(C(C)(C)C)c1)C(=O)N2 [10732/H06] the “Flk Kinase % Inhibition (P.110)” value was 22.6%. With COc1c(Br)cc(C=C2C(=O)Nc3c(Br)cc(Br)c(C)c32)cc1C(C)(C)C [10732/H07] the “Flk Kinase % Inhibition (P.110)” value was 9.7%. In the case of Cc1c(Br)cc(Br)c2c1C(=Cc1cc(Br)c(OCc3ccccc3)c(C(C)(C)C)c1)C(=O)N2 [10732/H08], the “Flk Kinase % Inhibition (P.110)” value is reported as 12.6%. In the case of COc1c(Cl)cc(C=C2C(=O)Nc3c(Br)cc(Br)c(C)c32)cc1C(C)(C)C [10732/H09], the “Flk Kinase % Inhibition (P.110)” value is reported as 5.4%. In the case of Cc1c(Br)cc(Br)c2c1C(=Cc1cc(Cl)c(OCc3ccccc3)c(C(C)(C)C)c1)C(=O)N2 [10732/H10], the “Flk Kinase % Inhibition (P.110)” value is reported as 3.3%. In the case of COc1c(I)cc(C=C2C(=O)Nc3c(Br)cc(Br)c(C)c32)cc1C(C)(C)C [10732/H11], the “Flk Kinase % Inhibition (P.110)” value is reported as 6.4%. In the case of Cc1c(Br)cc(Br)c2c1C(=Cc1cc(I)c(OCc3ccccc3)c(C(C)(C)C)c1)C(=O)N2 [10733/H02], the “Flk Kinase % Inhibition (P.110)” value is reported as −2.0%. For COc1c([N+](=O)[O-])cc(C=C2C(=O)Nc3c(Br)cc(Br)c(C)c32)cc1C(C)(C)C [10733/H03], the “Flk Kinase % Inhibition (P.110)” value was 31.2%. COc1c(C(C)(C)C)cc(C=C2C(=O)Nc3c(Br)cc(Br)c(C)c32)cc1C(C)(C)C [10733/H04] was tested, and the “Flk Kinase % Inhibition (P.110)” value was −8.5%. For Cc1c(Br)cc(Br)c2c1C(=Cc1cc(C(C)(C)C)c(OCc3ccccc3)c(C(C)(C)C)c1)C(=O)N2 [10733/H05], the “Flk Kinase % Inhibition (P.110)” value was 17.7%. With COc1c(C)cc(C=C2C(=O)Nc3c(Br)cc(Br)c(C)c32)cc1C [10733/H06] the “Flk Kinase % Inhibition (P.110)” value was 30.0%. In the case of Cc1cc(C=C2C(=O)Nc3c(Br)cc(Br)c(C)c32)cc(C)c1OCc1ccccc1 [10733/H07], the “Flk Kinase % Inhibition (P.110)” value is reported as 7.6%. COc1cc(Br)cc(C=C2C(=O)Nc3c(Br)cc(Br)c(C)c32)c1O [10733/H08] was tested, and the “Flk Kinase % Inhibition (P.110)” value was 4.8%. In the case of Cc1c(Br)cc(Br)c2c1C(=Cc1cc(Br)ccc1O)C(=O)N2 [10733/H09], the “Flk Kinase % Inhibition (P.110)” value is reported as 44.8%. In the case of Cc1c(Br)cc(Br)c2c1C(=Cc1cc([N+](=O)[O-])ccc1O)C(=O)N2 [10733/H10], the “Flk Kinase % Inhibition (P.110)” value is reported as 12.6%. For COc1c(O)ccc(C=C2C(=O)Nc3c(Br)cc(Br)c(C)c32)c1[N+](=O)[O-] [10733/H11], the “Flk Kinase % Inhibition (P.110)” value was 29.1%.
